The structures appear in SMILES notation.

The target of one assay is T1, PI3K-delta (Homo sapiens, UniProt O00329).
T1 construct: purchased Upstate; Millipore 14-604
As to the kind of experiment: HTRF PI3K biochemical assay, delta isoform. As to conditions: form screened (neutral or TFA salt) given, read-out: PI3Kdelta IC50. In general terms: In TR-FRET formats the signal depends on donor and acceptor labels being close together.

In a further assay the target is T2, PI3K-alpha (Homo sapiens, UniProt P42336).
T2 construct: purchased Upstate; Millipore 14-602
The assay is described as follows: HTRF PI3K biochemical assay, alpha isoform. Conditions: ratio PI3K-alpha IC50 value / PI3K-delta IC50 value.

T2 sequence (P42336 whole entry): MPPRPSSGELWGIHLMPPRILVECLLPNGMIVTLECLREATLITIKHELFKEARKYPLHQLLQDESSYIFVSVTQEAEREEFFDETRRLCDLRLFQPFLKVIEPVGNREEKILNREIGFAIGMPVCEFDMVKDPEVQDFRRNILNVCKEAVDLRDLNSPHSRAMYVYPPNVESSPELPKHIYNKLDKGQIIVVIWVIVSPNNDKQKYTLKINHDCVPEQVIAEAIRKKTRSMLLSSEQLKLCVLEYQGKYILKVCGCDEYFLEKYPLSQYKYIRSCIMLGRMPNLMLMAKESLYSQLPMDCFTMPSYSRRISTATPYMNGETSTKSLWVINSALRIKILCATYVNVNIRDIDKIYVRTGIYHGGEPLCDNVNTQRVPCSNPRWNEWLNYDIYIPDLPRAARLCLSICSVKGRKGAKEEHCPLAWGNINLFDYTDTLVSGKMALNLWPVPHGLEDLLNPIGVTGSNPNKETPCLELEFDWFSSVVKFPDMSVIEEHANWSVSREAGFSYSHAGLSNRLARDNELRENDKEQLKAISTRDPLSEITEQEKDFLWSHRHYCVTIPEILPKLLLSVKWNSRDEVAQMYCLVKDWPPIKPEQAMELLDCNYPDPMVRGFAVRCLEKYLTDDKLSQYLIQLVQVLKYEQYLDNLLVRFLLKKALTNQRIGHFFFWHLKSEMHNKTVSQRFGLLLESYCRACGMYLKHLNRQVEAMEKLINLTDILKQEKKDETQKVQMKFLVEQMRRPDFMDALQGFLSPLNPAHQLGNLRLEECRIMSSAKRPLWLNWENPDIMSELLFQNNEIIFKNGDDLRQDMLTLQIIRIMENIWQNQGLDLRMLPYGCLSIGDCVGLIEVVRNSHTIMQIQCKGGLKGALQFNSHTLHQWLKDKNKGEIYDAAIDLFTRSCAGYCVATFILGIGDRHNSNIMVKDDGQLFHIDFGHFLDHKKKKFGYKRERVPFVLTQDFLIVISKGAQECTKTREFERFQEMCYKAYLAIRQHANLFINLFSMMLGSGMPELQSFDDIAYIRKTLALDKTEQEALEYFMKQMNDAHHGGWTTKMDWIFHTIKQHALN
T2 sequence (P27986 whole entry partner): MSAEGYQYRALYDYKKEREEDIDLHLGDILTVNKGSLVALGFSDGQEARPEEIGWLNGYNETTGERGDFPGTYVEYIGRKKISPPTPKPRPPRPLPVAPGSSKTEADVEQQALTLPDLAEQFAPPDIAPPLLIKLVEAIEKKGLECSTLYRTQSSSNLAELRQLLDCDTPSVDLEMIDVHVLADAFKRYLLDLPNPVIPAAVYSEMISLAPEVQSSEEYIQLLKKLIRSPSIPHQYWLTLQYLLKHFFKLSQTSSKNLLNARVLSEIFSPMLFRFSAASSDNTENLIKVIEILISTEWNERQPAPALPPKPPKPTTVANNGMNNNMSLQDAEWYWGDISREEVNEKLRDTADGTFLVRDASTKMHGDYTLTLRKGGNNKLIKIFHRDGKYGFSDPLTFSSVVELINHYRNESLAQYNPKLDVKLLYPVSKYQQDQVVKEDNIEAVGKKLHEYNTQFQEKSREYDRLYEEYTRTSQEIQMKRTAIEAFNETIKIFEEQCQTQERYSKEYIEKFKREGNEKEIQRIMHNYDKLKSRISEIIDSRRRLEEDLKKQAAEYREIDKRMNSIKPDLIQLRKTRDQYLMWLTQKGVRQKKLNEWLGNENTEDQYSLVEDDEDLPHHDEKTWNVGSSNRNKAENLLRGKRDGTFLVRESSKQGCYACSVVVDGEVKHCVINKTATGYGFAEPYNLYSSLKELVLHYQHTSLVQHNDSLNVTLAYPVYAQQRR
T1 sequence (O00329 whole entry): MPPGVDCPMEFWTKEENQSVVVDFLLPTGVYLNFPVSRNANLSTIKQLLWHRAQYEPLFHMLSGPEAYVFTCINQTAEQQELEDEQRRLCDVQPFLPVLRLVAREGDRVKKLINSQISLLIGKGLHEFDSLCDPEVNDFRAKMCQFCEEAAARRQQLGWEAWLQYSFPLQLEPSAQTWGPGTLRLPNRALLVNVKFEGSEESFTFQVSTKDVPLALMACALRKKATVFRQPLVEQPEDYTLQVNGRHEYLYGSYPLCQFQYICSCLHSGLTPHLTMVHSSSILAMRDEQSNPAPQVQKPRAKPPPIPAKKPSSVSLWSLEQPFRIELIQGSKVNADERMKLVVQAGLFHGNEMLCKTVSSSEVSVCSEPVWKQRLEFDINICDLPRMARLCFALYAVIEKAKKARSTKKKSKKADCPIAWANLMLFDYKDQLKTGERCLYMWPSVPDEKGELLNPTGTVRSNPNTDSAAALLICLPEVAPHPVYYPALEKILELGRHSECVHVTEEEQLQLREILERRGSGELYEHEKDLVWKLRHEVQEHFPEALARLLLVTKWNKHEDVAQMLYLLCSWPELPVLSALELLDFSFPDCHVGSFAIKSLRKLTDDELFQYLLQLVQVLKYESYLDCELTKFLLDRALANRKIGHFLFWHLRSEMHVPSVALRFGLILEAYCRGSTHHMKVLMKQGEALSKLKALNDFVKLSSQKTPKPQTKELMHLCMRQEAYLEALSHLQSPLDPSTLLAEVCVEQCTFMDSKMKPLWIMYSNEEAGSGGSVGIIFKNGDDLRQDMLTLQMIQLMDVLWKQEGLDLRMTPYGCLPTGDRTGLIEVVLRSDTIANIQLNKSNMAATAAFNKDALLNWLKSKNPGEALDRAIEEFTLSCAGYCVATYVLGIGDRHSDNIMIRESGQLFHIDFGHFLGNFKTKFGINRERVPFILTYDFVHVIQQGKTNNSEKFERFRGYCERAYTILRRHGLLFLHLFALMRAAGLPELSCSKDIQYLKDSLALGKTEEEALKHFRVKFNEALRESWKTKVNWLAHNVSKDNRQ
T1 sequence (P27986 whole entry partner): as the sequence (P27986 whole entry partner) above

Take `CCn1c(-c2cnc(C)nc2)nc2c(NC3CN(C(C)C4CC4)CC34CC4)ncnc21` (centres unmarked) [Compound 10-2, N(S AND R)-[5-(1-(S AND R)-cyclopropylethyl)-5-azaspiro[2.4]hept-7-yl]-9-ethyl-8-(2-methylpyrimidin-5-yl)-9H-purin-6-amine]: on PI3K-delta, the IC50 is 41 nM. The “Selectivity versus PI3Kalpha” value at PI3K-alpha was greater than 10.

As for `Cc1ncc(-c2nc3c(N[C@H]4CCN(C(=O)C5CC5)C4)ncnc3n2C)cn1` [Compound 3-23, N-[(3S)-1-(cyclopropylcarbonyl)pyrrolidin-3-yl]-9-methyl-8-(2-methylpyrimidin-5-yl)-9H-purin-6-amine], the IC50 at PI3K-delta amounted to 5.4 nM. In addition, at PI3K-alpha, the “Selectivity versus PI3Kalpha” value is greater than 10.

Consider `CCn1ncc(-c2nc3c(N[C@H]4CCN(C(=O)C5CCOCC5)C4)ncnc3n2C)c1C` [Compound 2-4, 8-(1-ethyl-5-methyl-1H-pyrazol-4-yl)-9-methyl-N-[(3S)-1-(tetrahydro-2H-pyran-4-ylcarbonyl)pyrrolidin-3-yl]-9H-purin-6-amine], for which the IC50 on PI3K-delta is less than 1 nM. The “Selectivity versus PI3Kalpha” value on PI3K-alpha is greater than 10.

Consider `CCn1ncc(-c2nc3c(NC4CC(=O)N(CC(C)C)C4)ncnc3n2C)c1C` (racemic) [Compound 14-3, 4(S and R)-{[8-(1-ethyl-5-methyl-1H-pyrazol-4-yl)-9-methyl-9H-purin-6-yl}amino}-1-(2-methylpropyl)pyrrolidin-2-one], for which, at PI3K-delta, the IC50 stood at 5.4 nM. The “Selectivity versus PI3Kalpha” value on PI3K-alpha is greater than 10.

On to `CCn1c(-c2ccc(C(F)(F)F)nc2)nc2c(N[C@H]3CCN(C(=O)C4CCCO4)C3)ncnc21` (single isomer, unassigned) [Compound 2-104, 9-ethyl-N-{(3S)-1-[(2R or 2S)-tetrahydrofuran-2-ylcarbonyl]pyrrolidin-3-yl}-8-[6-(trifluoromethyl)pyridin-3-yl]-9H-purin-6-amine], for which the IC50 on PI3K-delta is 3.4 nM. For the same molecule, at PI3K-alpha, the “Selectivity versus PI3Kalpha” value is listed as greater than 10.

In the case of `CCCN1CC[C@H](Nc2ncnc3c2nc(-c2cnn(CC)c2C)n3C)C1` [Compound 10-1, 8-(1-ethyl-5-methyl-1H-pyrazol-4-yl)-9-methyl-N-[(3S)-1-propylpyrrolidin-3-yl]-9H-purin-6-amine], the IC50 at PI3K-delta stood at 42 nM. The “Selectivity versus PI3Kalpha” value at PI3K-alpha is greater than 10.

For the molecule `CCn1c(-c2cnc(C)nc2)nc2c(N[C@H]3CCN(C(=O)[C@H]4CC[C@H](O)CC4)C3)ncnc21` [Compound 2-99, trans-4-{[(3S)-3-{[9-ethyl-8-(2-methylpyrimidin-5-yl)-9H-purin-6-yl]amino}pyrrolidin-1-yl]carbonyl}cyclohexanol], the IC50 on PI3K-delta was 2.8 nM. For the same molecule, at PI3K-alpha, the “Selectivity versus PI3Kalpha” value is greater than 10.

Turning to `CCn1c(-c2cnc(C)nc2)nc2c(N[C@H]3CCN(C(=O)[C@@H]4C[C@H]4C)C3)ncnc21` [Compound 2-92, 9-ethyl-N-[(3S)-1-{[(1R,2R)-2-methylcyclopropyl]carbonyl}pyrrolidin-3-yl]-8-(2-methylpyrimidin-5-yl)-9H-purin-6-amine], on PI3K-delta, the IC50 was less than 1 nM. Moreover, the “Selectivity versus PI3Kalpha” value on PI3K-alpha is greater than 10.

With `CCn1c(-c2cnc(C)nc2)nc2c(N[C@H]3C[C@H](CO)N(C(=O)C4CC4)C3)ncnc21` [Compound 2-52, [(2R,4S)-1-(cyclopropylcarbonyl)-4-{[9-ethyl-8-(2-methylpyrimidin-5-yl)-9H-purin-6-yl]amino}pyrrolidin-2-yl]methanol], the IC50 at PI3K-delta amounted to 4.9 nM. Also, the “Selectivity versus PI3Kalpha” value on PI3K-alpha was greater than 10.

Turning to `CCn1c(C(F)F)nc2c(N[C@H]3CCN(C(=O)[C@H]4C[C@@H](OC)C4)C3)ncnc21` [Compound 7-18, 8-(difluoromethyl)-9-ethyl-N-{(3S)-1-[(cis-3-methoxycyclobutyl)carbonyl]pyrrolidin-3-yl}-9H-purin-6-amine], the IC50 at PI3K-delta is 11 nM. The “Selectivity versus PI3Kalpha” value on PI3K-alpha is recorded as greater than 10.

`CCn1c(-c2cnc(C)nc2)nc2c(N[C@H]3CCN(c4ccccn4)C3)ncnc21` [Compound 4-1, 9-ethyl-8-(2-methylpyrimidin-5-yl)-N-[(3S)-1-pyridin-2-ylpyrrolidin-3-yl]-9H-purin-6-amine]: on PI3K-delta, the IC50 is less than 1 nM. Also, the “Selectivity versus PI3Kalpha” value at PI3K-alpha is reported as greater than 10.

As to `CCn1c(-c2cnc(C)nc2)nc2c(N[C@H]3CCN(C(=O)C4(C)CC4)C3)ncnc21` [Compound 2-47, 9-ethyl-N-{(3S)-1-[(1-methylcyclopropyl)carbonyl]pyrrolidin-3-yl}-8-(2-methylpyrimidin-5-yl)-9H-purin-6-amine], the IC50 at PI3K-delta is 17 nM. In addition, the “Selectivity versus PI3Kalpha” value on PI3K-alpha was greater than 10.

Regarding `CCC(=O)N1CC[C@H](Nc2ncnc3c2nc(-c2cnn(CC)c2C)n3C2CC2)C1` [Compound 2-16, (S)-1-(3-((9-cyclopropyl-8-(1-ethyl-5-methyl-1H-pyrazol-4-yl)-9H-purin-6-yl)amino)pyrrolidin-1-yl)propan-1-one], the IC50 on PI3K-delta amounted to 53 nM. For the same molecule, the “Selectivity versus PI3Kalpha” value on PI3K-alpha is reported as greater than 10.

With `CCn1c(Oc2ccccc2)nc2c(N[C@H]3CCN(C(=O)C4CC4)C3)ncnc21` [Compound 8-5, N-[(3S)-1-(cyclopropylcarbonyl)pyrrolidin-3-yl]-9-ethyl-8-phenoxy-9H-purin-6-amine], on PI3K-delta, the IC50 is 23 nM. Also, the “Selectivity versus PI3Kalpha” value on PI3K-alpha is given as greater than 10.

In the case of `CCn1c(-c2cnc(C)nc2)nc2c(N[C@H]3CCN(c4cccc(NC)n4)C3)ncnc21` [Compound 4-8, 9-ethyl-N-{(3S)-1-[6-(methylamino)pyridin-2-yl]pyrrolidin-3-yl}-8-(2-methylpyrimidin-5-yl)-9H-purin-6-amine], the IC50 at PI3K-delta was 2.3 nM. Besides, the “Selectivity versus PI3Kalpha” value at PI3K-alpha is reported as greater than 10.

For the molecule `CCn1c(C(=O)NCCOC)nc2c(N[C@H]3CCN(C(=O)C4CC4)C3)ncnc21` [Compound 6-2, 6-{[(3S)-1-(cyclopropylcarbonyl)pyrrolidin-3-yl]amino}-9-ethyl-N-(2-methoxyethyl)-9H-purine-8-carboxamide], the IC50 on PI3K-delta amounted to 85 nM. Besides, the “Selectivity versus PI3Kalpha” value at PI3K-alpha is greater than 10.

In the case of `CCn1c(-c2cnc(C)nc2)nc2c(N[C@H]3CCN(C(=O)Cc4ccccc4)C3)ncnc21` [Compound 2-36, 9-ethyl-8-(2-methylpyrimidin-5-yl)-N-[(3S)-1-(phenylacetyl)pyrrolidin-3-yl]-9H-purin-6-amine], the IC50 at PI3K-delta came out at 17 nM. Besides, the “Selectivity versus PI3Kalpha” value at PI3K-alpha was greater than 10.

Consider `CCn1c(-c2cnc(C)nc2)nc2c(N[C@H]3CCN(C(=O)N4CC[C@H](OC)C4)C3)ncnc21` [Compound 12-14], for which the IC50 on PI3K-delta stood at 1.6 nM. The “Selectivity versus PI3Kalpha” value on PI3K-alpha was greater than 10.

Regarding `CCn1c(C(=O)N[C@H](C)C2CC2)nc2c(N[C@H]3CCN(C(=O)C4CC4)C3)ncnc21` [Compound 6-13, 6-{[(3S)-1-(cyclopropylcarbonyl)pyrrolidin-3-yl]amino}-N-[(1R)-1-cyclopropylethyl]-9-ethyl-9H-purine-8-carboxamide], at PI3K-delta, the IC50 turned out to be 12 nM. Moreover, the “Selectivity versus PI3Kalpha” value at PI3K-alpha is greater than 10.

Take `CCC(=O)N1CC[C@H](Nc2ncnc3c2nc(-c2cc(O)cc(F)c2)n3C)C1` [Compound 3-9, 3-fluoro-5-(9-methyl-6-{[(3S)-1-propanoylpyrrolidin-3-yl]amino}-9H-purin-8-yl)phenol]: the IC50 on PI3K-delta turned out to be 1.3 nM. Further, the “Selectivity versus PI3Kalpha” value on PI3K-alpha is greater than 10.

On to `CCn1c(C(=O)N[C@H]2CC[C@H](O)CC2)nc2c(N[C@H]3CCN(C(=O)C4CC4)C3)ncnc21` [Compound 6-7, 6-{[(3S)-1-(cyclopropylcarbonyl)pyrrolidin-3-yl]amino}-9-ethyl-N-(trans-4-hydroxycyclohexyl)-9H-purine-8-carboxamide], for which, at PI3K-delta, the IC50 was determined as 19 nM. Also, at PI3K-alpha, the “Selectivity versus PI3Kalpha” value was greater than 10.

Consider `CCn1c(-c2cnc(C)nc2)nc2c(N[C@H]3CCN(C(=O)C4CC(F)(F)C4)C3)ncnc21` [Compound 2-24, (S)-(3,3-difluorocyclobutyl)(3-((9-ethyl-8-(2-methylpyrimidin-5-yl)-9H-purin-6-yl)amino)pyrrolidin-1-yl)methanone], for which the IC50 at PI3K-delta worked out at 6.8 nM. Besides, on PI3K-alpha, the “Selectivity versus PI3Kalpha” value is recorded as greater than 10.

As for `CCn1c(-c2cnc(C)nc2)nc2c(N[C@H]3CC[C@@H](C(=O)NC)C3)ncnc21` [Compound 5-7], the IC50 at PI3K-delta was 120 nM. Also, the “Selectivity versus PI3Kalpha” value on PI3K-alpha was greater than 10.

For the molecule `CCC(=O)N1CC[C@H](Nc2ncnc3c2nc(-c2ccc4cn[nH]c4c2)n3C)C1` [Compound 3-6, (S)-1-(3-((8-(1H-indazol-6-yl)-9-methyl-9H-purin-6-yl)amino)pyrrolidin-1-yl)propan-1-one], the IC50 on PI3K-delta came to 1.6 nM. Further, the “Selectivity versus PI3Kalpha” value on PI3K-alpha is recorded as greater than 10.

For the molecule `CCn1c(N2CC[C@@H](O)C2)nc2c(N[C@H]3CCN(C(=O)C4CC4)C3)ncnc21` [Compound 8-1, (3R)-1-(6-{[(3S)-1-(cyclopropylcarbonyl)pyrrolidin-3-yl]amino}-9-ethyl-9H-purin-8-yl)pyrrolidin-3-ol], the IC50 at PI3K-delta was 510 nM. Further, the “Selectivity versus PI3Kalpha” value at PI3K-alpha is greater than 10.

In the case of `CCn1c(-c2cnc(C)nc2)nc2c(N[C@H]3CCN(C(=O)N4CC[C@H](F)C4)C3)ncnc21` [Compound 12-13, 9-ethyl-N-[(3S)-1-{[(3S)-3-fluoropyrrolidin-1-yl]carbonyl}pyrrolidin-3-yl]-8-(2-methylpyrimidin-5-yl)-9H-purin-6-amine], the IC50 on PI3K-delta worked out at 1.7 nM. In addition, on PI3K-alpha, the “Selectivity versus PI3Kalpha” value was greater than 10.

Consider `CCn1c(-c2cnc(C)nc2)nc2c(N[C@H]3CCN(C(=O)C4CCC4)C3)ncnc21` [Compound 2-22, (S)-cyclobutyl(3-((9-ethyl-8-(2-methylpyrimidin-5-yl)-9H-purin-6-yl)amino)pyrrolidin-1-yl)methanone], for which the IC50 on PI3K-delta came to 1.7 nM. On PI3K-alpha, the “Selectivity versus PI3Kalpha” value is given as greater than 10.

As to `CCn1c(-c2cnc(C)nc2)nc2c(N[C@H]3CN[C@@H](C(=O)N(C)C4CC4)C3)ncnc21` [Compound 15-13, (4R)-N-cyclopropyl-4-{[9-ethyl-8-(2-methylpyrimidin-5-yl)-9H-purin-6-yl]amino}-N-methyl-D-prolinamide], the IC50 at PI3K-delta amounted to 29 nM. Besides, the “Selectivity versus PI3Kalpha” value on PI3K-alpha is reported as greater than 10.
